The values below come from patent EP0347027B1, “Phenylpyridone derivatives,processes for their preparation and pharmaceutical compositions containing them” (SMITH KLINE & FRENCH LABORATORIES LIMITED, priority 1988, dated 1989).

A word on the inhibition: it is how much of the control response was suppressed.

The subject of one assay is hindquarter blood flow. Put plainly: Vasodilatation in vivo (perfused hindquarters at constant pressure). As to conditions: Rattus norvegicus, iv; dose producing a 50% increase in hindquarter blood flow; bolus i.v.; anaesthetised male Wistar rats; read-out: EDHQ₅₀. The method, then: Male Wistar rats (300 g) were anaesthetised with a sodium 5-ethyl-5-(1-methylpropyl)-2-thiobarbiturate/sodium pentobarbitone mixture i.p. (62.5 and 22.5 mg/kg respectively). The trachea was cannulated and the rats breathed spontaneously air enriched with O₂ (5 ml/min). Blood pressure was recorded from a carotid artery and a jugular vein was cannulated for the administration of compounds. The temperature of the animal was maintained at 37°C by the use of an electric blanket. […] The perfusion circuit was primed with 5% bovine serum albumin dissolved in 0.9% sodium chloride solution, pH adjusted to 7.4. Initially the pump rate was set between 10 and 15 ml/min to match the hind quarter perfusion pressure to that of the systemic circulation. Once set, the pressure remained unaltered for the rest of the experiment. A change in the speed of the pump (equivalent to hindquarter blood flow) was used to assess the changes in hindquarter vascular resistance.
All compounds were administered as a bolus i.v. and from the dose response curves the dose required to produce a 50% increase in hindquarter blood flow (EDHQ₅₀) was determined in µmoles/kg.

Assay [1] deals with bronchoconstrictor response. Put plainly: Anti-allergic activity (ovalbumen challenge in sensitised animals). In kind it is in vivo, Duncan Hartley guinea-pigs. As to conditions: Cavia porcellus, iv, 0.5 h; dose of 11 µmol/kg i.v.; ovalbumen 1mg.kg⁻¹ i.v. challenge 30 minutes following drug administration; sensitised guinea-pigs; read-out: inhibition of the control bronchoconstrictor response. As for the experimental part: Male Duncan Hartley guinea-pigs (250-300 g) were sensitised to ovalbumen by i.p. injection of 2 ml of 50mg.ml⁻¹ i.p. and 0.2 ml s.c. Three weeks later they were anaesthetised with 60mg.kg⁻¹ sodium pentabarbitone. The trachea was cannulated and the animal respired at a rate of 40 breaths per minute and at an initial tracheal inflation pressure of 16 mmHg. Tracheal inflation pressure was measured by a transducer connected to a side arm of the respiration circuit. The carotid artery was cannulated for the measurement of blood pressure and the signal was used to trigger an instantaneous rate meter. A jugular vein was cannulated for the administration of drug and allergen. After surgery the animals were allowed to stabilise and the drug was administered i.v. as a bolus. Following this, ovalbumen 1mg.kg⁻¹ was injected i.v. as the antigen challenge either 2, 15 or 30 minutes following drug treatment and the peak bronchoconstrictor response recorded. For the control group ovalbumen only was given. One ovalbumen challenge per guinea-pig was used and n = 6 for each time point. The percentage increase in tracheal inflation pressure was calculated.

As for `CCCOc1ccccc1-c1ccc(C#N)c(=O)[nH]1` [Example 1, 3-Cyano-6-(2-propoxyphenyl)-2(1H)-pyridinone], in the assay on hindquarter blood flow, the ED50 was 11.5 µmol/kg.

On to `CCCOc1ccccc1-c1ccc(C(N)=O)c(=O)[nH]1` [Example 2, 6-(2-Propoxyphenyl)-1,2-dihydro-2-oxopyridine-3-carboxamide], for which the inhibition at 11 µmol/kg in assay [1] stood at 44%. The ED50 in the assay on hindquarter blood flow was 14 µmol/kg.
